In US5670538A, “Use of prodelphinidins for obtaining medicaments intended for the treatment of arthrosis” (Laboratoires Dolisos, priority 1992, dated 1997):
Read-outs that look alike come from different tables or passages of the source.

Legend:
[1] = Production of OH° hydroxyl radicals (gamma irradiation, KMB substrate, ethylene by gas chromatography); format: biochemical; conditions: for % inhibition of the production of hydroxyl radicals: Substrate: KMB, relative to the controls
Method: 8. Production of OH° hydroxyl radicals
The products are dissolved in 10 ml flasks at the required concentration in phosphate buffer: 6.6.10^-2 M, pH 7.4 in the presence of alpha keto methiolbutyric acid (10^-3 M: KMB). After the flasks have been hermetically sealed, the samples are irradiated with gamma rays provided by a ^137 Cs source.
The OH° radicals produced by the gamma radiation react with the KMB to produce the ethylene detected by a gas chromatograph. The height of the ethylene peak is proportional to the quantity of free radicals formed in the medium (Weis et al., 1978).

ferricytochrome C = experiment: Control experiments: direct reduction of ferricytochrome C by the product itself; format: biochemical; conditions: effect not quantifiable
From the text: This effect not being quantifiable, no conclusion can consequently be drawn on a possible inhibiting effect of these products on the production of the superoxide anion by the activated PMNs.

[2] = system: human articular chondrocytes; experiment: Radioimmunoassay of cartilaginous proteoglycans (PG) produced in tridimensional culture of human chondrocytes; format: cell-based; conditions: for PG in the clusters over 12 days: 0-12 days
From the text: The model used for testing the proanthocyanidols, namely the tridimensional culture of human chondrocytes allows chondrorepair to be quantified by the production of matrix substances: type II collagen, proteoglycans, and chondroresorption by the reduction in the levels of prostaglandin E2 and of OH° and O°2 type free radicals produced.
1. Tridimensional culture of human chondrocytes
The technique used has been described in detail (Bassleer et al., 1986).
Briefly, human articular chondrocytes are cultivated in DMEM (Dulbecco's Modification of Eagle's Medium--ICN--Gand, Belgium) with either Ultroser G 1% (GIBCO, Gand, Belgium) or 10% of foetal calf serum (ICN--Gand--Belgium), and 50 μg of ascorbic acid/ml added to it. The cartilage originates from the apparently normal zone of heads of human femur suffering from arthrosis, immediately after an operation carried out to insert a total hip prosthesis; it can also originate from the head of a healthy femur, but which has undergone a traumatism and has had to be replaced. This cartilage is then digested by clostridial collagenase 1 mg/ml (Boehringer-Mannheim, Germany) in a buffer (NaCl 120 mM, CaCl2 1 mM, KCl 5 mM, KH2 PO4 1 mM, NaHCO3 25 mM, glucose 2 mM and Hepes 30 mM, pH 7.4) for 24 hours. After 6 successive washings and centrifugations, the chondrocytes, isolated from their matrix, are cultured in flasks (10^6 cells/2 ml of culture medium) placed on a gyrator (10 rpm). The cultures are kept at 37° C. in an atmosphere of air 95%-CO2 5% (Bassleer et al., 1986). Cultivated under these conditions, after 4 to 5 days the chondrocytes form a tridimensional cluster in each flask. These clusters, which at first have a flocculent appearance, then tend to condense during the culture. After two weeks, their diameter is, in general, from 1 to 2 mm.
The fresh weight of the clusters increases with the duration of the culture, above all during the few first days.
2. Radioimmunoassay of cartilaginous proteoglycans (PG)
The PGs are measured with a radioimmunoassay (RIA) which is specific and sensitive to human cartilaginous PGs (Gysen et al. 1984). The PGs were extracted from human cartilage, according to the methods described by Roughley et al., (1981) and by Bayliss and Venn (1980). The antiserum against the cartilaginous PGs was obtained from the rabbit according to the technique of Vaitukaitis et al. (1971). The radioimmunoassay is carried out in a 0.4 ml volume consisting of 0.1 ml of tracer solution (15000 to 20000 cpm ^125 I-PG, labelled by the chloramine T method (Greenwood, 1973). 0.1 ml of anti-PG antiserum diluted to 1/5000 in phosphate-buffered saline (PBS-50 mM PO4, 150 mM NaCl ), containing BSA (5 g/l bovine serum albumin and 6.7 mM sodium azide) (incubation buffer) and 0.2 ml of several dilutions of the culture medium or of the cluster extract or also of the antigen (0.5 -500 ng/tube).
After four days at 4° C., the free PGs* (radioactive PGs) are separated from the PG*-antibody complexes by double precipitation (Franchimont et al., 1983).
The sensitivity of the assay is 0.6 ng/tube. The accuracy of measurement is of the order of 4%. The coefficients of the intra- and inter assay variation are less than 10% and 20% respectively.
The antibodies are directed against the antigenic determinants of the central protein of PG. There is a complete crossed reaction with human PGs of cartilage from the ribs, vertebral disks and trachea, even with PGs extracted from veins or arteries. There is no cross reaction with glycosaminoglycans or with PGs extracted from foetal tissues or the small PGs from bone.
The PGs are measured directly in the culture medium. As for the chondrocyte clusters, they are washed 3 times in a phosphate-buffered saline (PBS-50 mM PO4, 150 mM NaCl pH 7.4) containing protease inhibitors (Oegema et al., 1975:100 mM 6-aminohexanoic acid, 10 mM EDTA, 50 mM benzamidine hydrochloride, 5.10^-8 M trypsin inhibitor, 6.7 mM sodium azide and 200 U/ml superoxide dismutase). […]

Oc1cc(O)c2c(c1)O[C@H](c1cc(O)c(O)c(O)c1)[C@@H](O)[C@@H]2c1c(O)cc(O)c2c1O[C@H](c1cc(O)c(O)c(O)c1)[C@@H](O)C2 [Substance Ib, GC-(4 alpha→8) GC]
% inhibition of the production of hydroxyl radicals ([1]; 10^-3 M): 80% | % inhibition of the production of hydroxyl radicals ([1]; 10^-4 M): 46% | % inhibition of the production of hydroxyl radicals ([1]; 10^-5 M): 25% | Production of free radicals from KMB, effect in words ([1]; Table 22): significantly inhibits | Direct reduction of ferricytochrome C (ferricytochrome C): powerful reducers of ferricytochrome C | PG in the clusters over 12 days ([2]; 1% Ultroser G, 1 μg/ml): 742 ± 62 ng/μg DNA | PG in the clusters over 12 days ([2]; 1% Ultroser G, 10 μg/ml): 931 ± 24 ng/μg DNA | PG in the clusters over 12 days ([2]; 1% Ultroser G, 100 μg/ml): 1108 ± 45 ng/μg DNA | Concentrations of PG in the clusters, effect in words ([2]; 1% Ultroser G, 1 μg/ml): no significant effect | PGs released in the culture medium ([2]; 1% Ultroser G, culture time 0-4 days, 1 μg/ml): 13.0 ± 1.22 μg/μg DNA/96 h | PGs released in the culture medium ([2]; 1% Ultroser G, culture time 0-4 days, 10 μg/ml): 20.4 ± 3.0 μg/μg DNA/96 h | PGs released in the culture medium ([2]; 1% Ultroser G, culture time 0-4 days, 100 μg/ml): 28.2 ± 2.92 μg/μg DNA/96 h | PGs released in the culture medium ([2]; 1% Ultroser G, culture time 4-8 days, 1 μg/ml): 3.45 ± 0.56 μg/μg DNA/96 h | PGs released in the culture medium ([2]; 1% Ultroser G, culture time 4-8 days, 10 μg/ml): 4.78 ± 0.56 μg/μg DNA/96 h | PGs released in the culture medium ([2]; 1% Ultroser G, culture time 4-8 days, 100 μg/ml): 5.65 ± 0.24 μg/μg DNA/96 h | PGs released in the culture medium ([2]; 1% Ultroser G, culture time 8-12 days, 1 μg/ml): 0.72 ± 0.08 μg/μg DNA/96 h | PGs released in the culture medium ([2]; 1% Ultroser G, culture time 8-12 days, 10 μg/ml): 1.00 ± 0.12 μg/μg DNA/96 h | PGs released in the culture medium ([2]; 1% Ultroser G, culture time 8-12 days, 100 μg/ml): 1.32 ± 0.01 μg/μg DNA/96 h | Proteoglycans released during the 12 days of culture, Abs ([2]; 1% Ultroser G, cumulative, 1 μg/ml): 17.2 μg/μg DNA/12 days | Proteoglycans released during the 12 days of culture, Abs ([2]; 1% Ultroser G, cumulative, 10 μg/ml): 26.3 μg/μg DNA/12 days | Proteoglycans released during the 12 days of culture, Abs ([2]; 1% Ultroser G, cumulative, 100 μg/ml): 35.2 μg/μg DNA/12 days | activity at 1 µg/mL ([2]; Homo sapiens, Chondrocyte, 288 h, 1% Ultroser G, cumulative, 1 μg/ml, control = 100, read-out: Proteoglycans released during the 12 days of culture, %): 98% | activity at 10 µg/mL ([2]; Homo sapiens, Chondrocyte, 288 h, 1% Ultroser G, cumulative, 10 μg/ml, control = 100, read-out: Proteoglycans released during the 12 days of culture, %): 149% | activity at 100 µg/mL ([2]; Homo sapiens, Chondrocyte, 288 h, 1% Ultroser G, cumulative, 100 μg/ml, control = 100, read-out: Proteoglycans released during the 12 days of culture, %): 200% | activity at 10 µg/mL ([2]; Homo sapiens, Chondrocyte, foetal calf serum, Table 14, 0-4 days, 10 μg/ml, control = 100%, read-out: PG in the culture medium, % of control): 117% | activity at 100 µg/mL ([2]; Homo sapiens, Chondrocyte, foetal calf serum, Table 14, 0-4 days, 100 μg/ml, control = 100%, read-out: PG in the culture medium, % of control): 184% | activity at 10 µg/mL ([2]; Homo sapiens, Chondrocyte, foetal calf serum, Table 14, 4-8 days, 10 μg/ml, control = 100%, read-out: PG in the culture medium, % of control): 117% | activity at 100 µg/mL ([2]; Homo sapiens, Chondrocyte, foetal calf serum, Table 14, 4-8 days, 100 μg/ml, control = 100%, read-out: PG in the culture medium, % of control): 136% | activity at 10 µg/mL ([2]; Homo sapiens, Chondrocyte, foetal calf serum, Table 15, 0-4 days, 10 μg/ml, control = 100%, read-out: PG in the culture medium, % of control): 134% | activity at 100 µg/mL ([2]; Homo sapiens, Chondrocyte, foetal calf serum, Table 15, 0-4 days, 100 μg/ml, control = 100%, read-out: PG in the culture medium, % of control): 149% | activity at 10 µg/mL ([2]; Homo sapiens, Chondrocyte, foetal calf serum, Table 15, 4-8 days, 10 μg/ml, control = 100%, read-out: PG in the culture medium, % of control): 125% | activity at 100 µg/mL ([2]; Homo sapiens, Chondrocyte, foetal calf serum, Table 15, 4-8 days, 100 μg/ml, control = 100%, read-out: PG in the culture medium, % of control): 137% | activity at 10 µg/mL ([2]; Homo sapiens, Chondrocyte, foetal calf serum, Table 16, 0-8 days, 10 μg/ml, control = 100%, read-out: PG in the clusters over 8 days, % of control): 141% | activity at 100 µg/mL ([2]; Homo sapiens, Chondrocyte, foetal calf serum, Table 16, 0-8 days, 100 μg/ml, control = 100%, read-out: PG in the clusters over 8 days, % of control): 146% | activity at 10 µg/mL ([2]; Homo sapiens, Chondrocyte, foetal calf serum, Table 17, 0-8 days, 10 μg/ml, control = 100%, read-out: PG in the clusters over 8 days, % of control): 126% | activity at 100 µg/mL ([2]; Homo sapiens, Chondrocyte, foetal calf serum, Table 17, 0-8 days, 100 μg/ml, control = 100%, read-out: PG in the clusters over 8 days, % of control): 144% | PGs in the clusters, effect in words ([2]; foetal calf serum, 10 and 100 μg/ml): significantly increased | PG in the culture medium ([2]; foetal calf serum, Table 14, 0-4 days, 10 μg/ml): 7.6 ± 0.41 μg/μg DNA - 96 H | PG in the culture medium ([2]; foetal calf serum, Table 14, 0-4 days, 100 μg/ml): 11.9 ± 2.09 μg/μg DNA - 96 H | PG in the culture medium ([2]; foetal calf serum, Table 14, 4-8 days, 10 μg/ml): 2.32 ± 0.21 μg/μg DNA - 96 H | PG in the culture medium ([2]; foetal calf serum, Table 14, 4-8 days, 100 μg/ml): 2.71 ± 0.24 μg/μg DNA - 96 H | PG in the culture medium ([2]; foetal calf serum, Table 15, 0-4 days, 10 μg/ml): 7.1 ± 0.36 μg/μg DNA - 96 H | PG in the culture medium ([2]; foetal calf serum, Table 15, 0-4 days, 100 μg/ml): 7.9 ± 0.30 μg/μg DNA - 96 H | PG in the culture medium ([2]; foetal calf serum, Table 15, 4-8 days, 10 μg/ml): 2.1 ± 1.16 μg/μg DNA - 96 H | PG in the culture medium ([2]; foetal calf serum, Table 15, 4-8 days, 100 μg/ml): 2.3 ± 0.13 μg/μg DNA - 96 H | PG in the clusters over 8 days ([2]; foetal calf serum, Table 16, 0-8 days, 10 μg/ml): 1108 ± 166 ng/μg DNA | PG in the clusters over 8 days ([2]; foetal calf serum, Table 16, 0-8 days, 100 μg/ml): 1142 ± 110 ng/μg DNA | PG in the clusters over 8 days ([2]; foetal calf serum, Table 17, 0-8 days, 10 μg/ml): 724.0 ± 72.45 ng/μg DNA | PG in the clusters over 8 days ([2]; foetal calf serum, Table 17, 0-8 days, 100 μg/ml): 832.0 ± 59.10 ng/μg DNA
